One data set concerns the target hAChE (Homo sapiens, UniProt P22303).
Another data set addresses AgAChE1 (Anopheles gambiae, UniProt Q869C3).
For data set [1] the following is noted: at higher concentrations.

Each structure is given as a SMILES string.

AgAChE1, sequence (Q869C3 39-737): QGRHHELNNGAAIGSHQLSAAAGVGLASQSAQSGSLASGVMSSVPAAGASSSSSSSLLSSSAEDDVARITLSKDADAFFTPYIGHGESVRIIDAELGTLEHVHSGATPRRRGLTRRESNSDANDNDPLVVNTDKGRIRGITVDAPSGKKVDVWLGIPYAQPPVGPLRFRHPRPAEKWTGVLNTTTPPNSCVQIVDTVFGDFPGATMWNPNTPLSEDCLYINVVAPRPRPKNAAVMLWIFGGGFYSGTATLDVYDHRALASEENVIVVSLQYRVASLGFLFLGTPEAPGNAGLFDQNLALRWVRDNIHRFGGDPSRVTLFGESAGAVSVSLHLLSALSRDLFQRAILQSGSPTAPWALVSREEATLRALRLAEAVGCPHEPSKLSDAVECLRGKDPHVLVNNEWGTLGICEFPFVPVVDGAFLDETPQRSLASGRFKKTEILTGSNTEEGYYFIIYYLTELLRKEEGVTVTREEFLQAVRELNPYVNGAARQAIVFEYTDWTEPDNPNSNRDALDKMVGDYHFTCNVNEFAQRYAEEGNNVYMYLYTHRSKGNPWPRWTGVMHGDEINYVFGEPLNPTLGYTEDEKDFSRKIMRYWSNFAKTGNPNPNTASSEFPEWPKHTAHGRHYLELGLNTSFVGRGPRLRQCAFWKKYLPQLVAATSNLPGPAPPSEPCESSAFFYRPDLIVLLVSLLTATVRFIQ
hAChE, sequence (P22303 32-614): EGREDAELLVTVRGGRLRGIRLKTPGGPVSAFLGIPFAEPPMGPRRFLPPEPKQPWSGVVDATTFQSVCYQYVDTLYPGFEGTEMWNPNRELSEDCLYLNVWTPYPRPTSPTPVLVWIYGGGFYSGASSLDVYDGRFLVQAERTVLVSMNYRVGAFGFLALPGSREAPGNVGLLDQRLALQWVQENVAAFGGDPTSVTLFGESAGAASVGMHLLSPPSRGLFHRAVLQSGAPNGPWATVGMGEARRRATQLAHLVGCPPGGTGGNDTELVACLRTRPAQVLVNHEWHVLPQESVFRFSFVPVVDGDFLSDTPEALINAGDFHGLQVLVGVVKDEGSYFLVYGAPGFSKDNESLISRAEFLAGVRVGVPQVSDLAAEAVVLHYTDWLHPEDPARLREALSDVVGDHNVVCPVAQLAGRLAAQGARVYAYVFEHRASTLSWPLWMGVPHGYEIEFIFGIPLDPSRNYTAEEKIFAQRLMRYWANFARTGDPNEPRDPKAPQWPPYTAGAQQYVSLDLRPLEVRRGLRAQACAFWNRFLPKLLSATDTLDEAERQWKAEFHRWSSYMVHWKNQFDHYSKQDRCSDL

Turning to `CN(C)CCN1C(=O)CSC1c1ccc(Cl)cc1Cl.Cl` (stereo not drawn) [compound 38, 2-(2,4-Dichlorophenyl)-3-(2-(dimethylamino)ethyl)thiazolidin-4-one Hydrochloride], the “activity against hAChE” value on hAChE is “inactive”.

For `Cl.O=C1CSC(c2ccc(F)cc2)N1CCNC1CC1` (stereo not drawn) [compound 49, 3-(2-(Cyclopropylamino)ethyl)-2-(4-fluorophenyl)thiazolidin-4-one Hydrochloride], the “loss of potency vs 3-carbon chain dimethylamine analogue” value on AgAChE1 is reported as 13 fold.

For the compound `CN(C)CCCN1C(=O)CSC1c1cccc2ccccc12.Cl` (stereo not drawn) [compound 36, 3-(3-(Dimethylamino)propyl)-2-(naphthalen-1-yl)thiazolidin-4-one Hydrochloride], in data set [1], the solubility result is on record as “reduced its solubility at higher concentrations”.

As to `[N-]=[N+]=NCCCN1C(=O)CSC1c1ccccc1` (stereo not drawn) [compound 17, 3-(3-Azidopropyl)-2-phenylthiazolidin-4-one], at AgAChE1, the “IC50 (μM) AgAChE1” value was “Inactive” and the “inhibitory activity towards AgAChE1” value is “no detectable inhibitory activity”.

For the compound `CC(C)NCCN1C(=O)CSC1c1cccc2ccccc12.Cl` (stereo not drawn) [compound 43, 3-(2-(Isopropylamino)ethyl)-2-(naphthalen-1-yl)thiazolidin-4-one Hydrochloride], the “times weaker binders than their tertiary amine analogues” value on AgAChE1 is recorded as “over 10 times”.

Regarding `O=C1CSC(c2ccccc2)N1CCc1ccc(F)cc1` (stereo not drawn) [compound 9, 3-(4-Fluorophenethyl)-2-phenylthiazolidin-4-one], at AgAChE1, the “IC50 (μM) AgAChE1” value is listed as “Inactive” and the “inhibitory activity towards AgAChE1” value is “no detectable inhibitory activity”.

As to `CN(C)CCN1C(=O)CSC1c1cccc2ccccc12.Cl` (stereo not drawn) [compound 40, 3-(2-(Dimethylamino)ethyl)-2-(naphthalen-1-yl)thiazolidin-4-one Hydrochloride], the “activity against hAChE” value at hAChE was “inactive”.

For the compound `CNCCN1C(=O)CSC1c1cccc2ccccc12.Cl` (stereo not drawn) [compound 54, N-Methyl-2-(2-(naphthalen-1-yl)-4-oxothiazolidin-3-yl)ethan-1-aminium Chloride], at AgAChE1, the “times weaker binders than their tertiary amine analogues” value is listed as “over 10 times”.

On to `CN(C)CCN1C(=O)CSC1c1cccc(F)c1F.Cl` (stereo not drawn) [compound 39, 2-(2,3-Difluorophenyl)-3-(2-(dimethylamino)ethyl)thiazolidin-4-one Hydrochloride], for which the “activity against hAChE” value at hAChE was “inactive”.

`CN(C)CCN1C(=O)CSC1c1ccc(F)cc1.Cl` (stereo not drawn) [compound 37, 3-(2-(Dimethylamino)ethyl)-2-(4-fluorophenyl)thiazolidin-4-one Hydrochloride]: the “activity against hAChE” value on hAChE was “inactive”.

The values are drawn from paper PMC10184127 (Journal of Medicinal Chemistry, 2023).
